{"source": "patent US20100298141A1", "about": "“SUBSTITUTED PYRIDINE N-OXIDE HERBICIDES” (E. I. DU PONT DE NEMOURS AND COMPANY, priority 2007, published 2010)", "key": {"giant foxtail [1]": {"system": "giant foxtail", "assay": "Test A pre-/postemergence greenhouse test", "type": "in vivo, Setaria faberi", "conditions": "for Plant response rating, Foxtail, Giant: 0 to 100 scale where 0 is no effect and 100 is complete control; for Foxtail, Giant plant response rating: 0 to 100 scale", "procedure,_shortened": "(§1)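 Untreated controls served as the reference for visual injury ratings taken about ten days after spraying. The non-phytotoxic solvent/surfactant formulation was applied preemergence to seeded loam and sand and postemergence to plants two to ten cm high.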"}, "velvetleaf": {"system": "velvetleaf", "assay": "Test A pre-/postemergence greenhouse test", "type": "in vivo, Abutilon theophrasti", "conditions": "for Plant response rating, Velvetleaf: 0 to 100 scale where 0 is no effect and 100 is complete control; for Velvetleaf plant response rating: 0 to 100 scale", "procedure,_shortened": "as §1"}, "wheat": {"system": "wheat", "assay": "Test A pre-/postemergence greenhouse test", "type": "in vivo, Triticum aestivum", "conditions": "for Plant response rating, Wheat: 0 to 100 scale where 0 is no effect and 100 is complete control; for Wheat plant response rating: 0 to 100 scale", "procedure,_shortened": "as §1"}, "corn": {"system": "corn", "assay": "Test A pre-/postemergence greenhouse test", "type": "in vivo, Zea mays", "conditions": "for Plant response rating, Corn: 0 to 100 scale where 0 is no effect and 100 is complete control; for Corn plant response rating: 0 to 100 scale", "procedure,_shortened": "as §1"}, "downy brome": {"system": "downy brome", "assay": "Test C pre-/postemergence test", "type": "in vivo, Bromus tectorum", "procedure,_shortened": "(§2)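 Seeds were planted and treated preemergence with test chemical in a non-phytotoxic solvent mixture containing surfactant. Postemergence applications of the same formulation went onto plants 2 to 18 cm tall (1- to 4-leaf stage). A dash marks no test result.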"}, "catchweed bedstraw": {"system": "catchweed bedstraw", "assay": "Test C pre-/postemergence test", "type": "in vivo, Galium aparine", "procedure,_shortened": "as §2"}, "bermudagrass": {"system": "bermudagrass", "assay": "Test C pre-/postemergence test", "type": "in vivo, Cynodon dactylon", "procedure,_shortened": "as §2"}, "Surinam grass": {"system": "Surinam grass", "assay": "Test C pre-/postemergence test", "type": "in vivo, Brachiaria decumbens", "procedure,_shortened": "as §2"}, "crabgrass": {"system": "crabgrass", "assay": "Test C pre-/postemergence test", "type": "in vivo, Digitaria sanguinalis", "procedure,_shortened": "as §2"}, "giant foxtail [2]": {"system": "giant foxtail", "assay": "Test C pre-/postemergence test", "type": "in vivo, Setaria faberii", "procedure,_shortened": "as §2"}, "johnsongrass": {"system": "johnsongrass", "assay": "Test C pre-/postemergence test", "type": "in vivo, Sorghum halepense", "procedure,_shortened": "as §2"}, "lambsquarters": {"system": "lambsquarters", "assay": "Test C pre-/postemergence test", "type": "in vivo, Chenopodium album", "procedure,_shortened": "as §2"}, "morningglory": {"system": "morningglory", "assay": "Test C pre-/postemergence test", "type": "in vivo, Ipomoea coccinea", "procedure,_shortened": "as §2"}, "pigweed": {"system": "pigweed", "assay": "Test C pre-/postemergence test", "type": "in vivo, Amaranthus retroflexus", "procedure,_shortened": "as §2"}, "soybean": {"system": "soybean", "assay": "Test C pre-/postemergence test", "type": "in vivo, Glycine max", "procedure,_shortened": "as §2"}, "rice": {"system": "rice", "assay": "Test C flooded paddy test", "type": "in vivo, Oryza sativa", "conditions": "Flood", "procedure,_shortened": "(§3)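 Visual injury ratings against untreated controls, taken 13 to 15 days after compound was added to paddy water standing 3 cm above the soil.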"}, "barnyardgrass": {"system": "barnyardgrass", "assay": "Test C flooded paddy test", "type": "in vivo, Echinochloa crus-galli", "conditions": "Flood", "procedure,_shortened": "as §3"}, "[3]": {"conditions": "Postemergence, 500 g ai/ha, 0 is no effect, 100 is complete control"}, "[4]": {"conditions": "Preemergence, 125 g ai/ha, 0 no effect, 100 complete control"}, "[5]": {"conditions": "62 g ai/ha, Preemergence, scale 0 to 100"}, "[6]": {"conditions": "125 g ai/ha, preemergence, scale 0 (no effect) to 100 (complete control)"}, "[7]": {"conditions": "Preemergence, 31 g ai/ha, scale 0 to 100 (0 no effect, 100 complete control)"}, "[8]": {"conditions": "preemergence, 250 g ai/ha, scale 0 (no effect) to 100 (complete control)"}, "[9]": {"conditions": "62 g ai/ha, scale 0 to 100 (0 no effect, 100 complete control)"}, "[10]": {"conditions": "250 g ai/ha, scale 0 to 100, 0 no effect, 100 complete control, 13 to 15 days"}}, "data": [{"smiles": "Cn1nc(C(F)(F)F)c(C[S+]([O-])c2cccc[n+]2[O-])c1OCC(F)F", "note": "(stereo not drawn) [Compound 75]", "values": [{"measurement": "Plant response rating, Foxtail, Giant", "setting": "giant foxtail [1]; Postemergence, 125 g ai/ha", "value": 80}, {"measurement": "Foxtail, Giant plant response rating", "setting": "giant foxtail [1]; [3]", "value": 90}, {"measurement": "Foxtail, Giant plant response rating", "setting": "giant foxtail [1]; [4]", "value": 90}, {"measurement": "Plant response rating, Foxtail, Giant", "setting": "giant foxtail [1]; Preemergence, 500 g ai/ha", "value": 100}, {"measurement": "Plant response rating, Velvetleaf", "setting": "velvetleaf; Postemergence, 125 g ai/ha", "value": 40}, {"measurement": "Velvetleaf plant response rating", "setting": "velvetleaf; [3]", "value": 80}, {"measurement": "Velvetleaf plant response rating", "setting": "velvetleaf; [4]", "value": 60}, {"measurement": "Plant response rating, Velvetleaf", "setting": "velvetleaf; Preemergence, 500 g ai/ha", "value": 100}, {"measurement": "Plant response rating, Wheat", "setting": "wheat; Postemergence, 125 g ai/ha", "value": 50}, {"measurement": "Wheat plant response rating", "setting": "wheat; [3]", "value": 70}, {"measurement": "Wheat plant response rating", "setting": "wheat; [4]", "value": 70}, {"measurement": "Plant response rating, Wheat", "setting": "wheat; Preemergence, 500 g ai/ha", "value": 100}, {"measurement": "Plant response rating, Corn", "setting": "corn; Postemergence, 125 g ai/ha", "value": 50}, {"measurement": "Corn plant response rating", "setting": "corn; [3]", "value": 70}, {"measurement": "Corn plant response rating", "setting": "corn; [4]", "value": 0}, {"measurement": "Plant response rating, Corn", "setting": "corn; Preemergence, 500 g ai/ha", "value": 70}, {"measurement": "Bromegrass, Downy plant response rating", "setting": "downy brome; [5]", "value": 50}, {"measurement": "Bromegrass, Downy plant response rating", "setting": "downy brome; [6]", "value": 85}, {"measurement": "Plant response rating, Bromegrass, Downy", "setting": "downy brome; [7]", "value": 40}, {"measurement": "Bromegrass, Downy plant response rating", "setting": "downy brome; [8]", "value": 90}, {"measurement": "Galium plant response rating", "setting": "catchweed bedstraw; [5]", "value": 100}, {"measurement": "Galium plant response rating", "setting": "catchweed bedstraw; [6]", "value": 100}, {"measurement": "Plant response rating, Galium", "setting": "catchweed bedstraw; [7]", "value": 80}, {"measurement": "Galium plant response rating", "setting": "catchweed bedstraw; [8]", "value": 100}, {"measurement": "Bermudagrass plant response rating", "setting": "bermudagrass; 62 g ai/ha, Preemergence, scale 0 to 100 (0 no effect, 100 complete control)", "value": 100}, {"measurement": "Bermudagrass plant response rating", "setting": "bermudagrass; [6]", "value": 100}, {"measurement": "Plant response rating, Bermudagrass", "setting": "bermudagrass; [7]", "value": 100}, {"measurement": "Bermudagrass plant response rating", "setting": "bermudagrass; [8]", "value": 100}, {"measurement": "Surinam Grass plant response rating", "setting": "Surinam grass; [5]", "value": 100}, {"measurement": "Surinam Grass plant response rating", "setting": "Surinam grass; [6]", "value": 100}, {"measurement": "Plant response rating, Surinam Grass", "setting": "Surinam grass; [7]", "value": 60}, {"measurement": "Surinam Grass plant response rating", "setting": "Surinam grass; [8]", "value": 100}, {"measurement": "Crabgrass, Large plant response rating", "setting": "crabgrass; [5]", "value": 85}, {"measurement": "Crabgrass, Large plant response rating", "setting": "crabgrass; [6]", "value": 100}, {"measurement": "Plant response rating, Crabgrass, Large", "setting": "crabgrass; [7]", "value": 40}, {"measurement": "Crabgrass, Large plant response rating", "setting": "crabgrass; [8]", "value": 100}, {"measurement": "Foxtail, Giant plant response rating", "setting": "giant foxtail [2]; [5]", "value": 85}, {"measurement": "Foxtail, Giant plant response rating", "setting": "giant foxtail [2]; [6]", "value": 100}, {"measurement": "Plant response rating, Foxtail, Giant", "setting": "giant foxtail [2]; [7]", "value": 80}, {"measurement": "Foxtail, Giant plant response rating", "setting": "giant foxtail [2]; [8]", "value": 100}, {"measurement": "Johnsongrass plant response rating", "setting": "johnsongrass; [5]", "value": 85}, {"measurement": "Johnsongrass plant response rating", "setting": "johnsongrass; [6]", "value": 100}, {"measurement": "Plant response rating, Johnsongrass", "setting": "johnsongrass; [7]", "value": 50}, {"measurement": "Johnsongrass plant response rating", "setting": "johnsongrass; [8]", "value": 100}, {"measurement": "Lambsquarters plant response rating", "setting": "lambsquarters; [5]", "value": 100}, {"measurement": "Lambsquarters plant response rating", "setting": "lambsquarters; [6]", "value": 100}, {"measurement": "Plant response rating, Lambsquarters", "setting": "lambsquarters; [7]", "value": 100}, {"measurement": "Lambsquarters plant response rating", "setting": "lambsquarters; [8]", "value": 100}, {"measurement": "Morningglory plant response rating", "setting": "morningglory; [5]", "value": 100}, {"measurement": "Morningglory plant response rating", "setting": "morningglory; [6]", "value": 100}, {"measurement": "Plant response rating, Morningglory", "setting": "morningglory; [7]", "value": 30}, {"measurement": "Morningglory plant response rating", "setting": "morningglory; [8]", "value": 100}, {"measurement": "Pigweed plant response rating", "setting": "pigweed; [5]", "value": 100}, {"measurement": "Pigweed plant response rating", "setting": "pigweed; [6]", "value": 100}, {"measurement": "Plant response rating, Pigweed", "setting": "pigweed; [7]", "value": 100}, {"measurement": "Pigweed plant response rating", "setting": "pigweed; [8]", "value": 100}, {"measurement": "Soybean plant response rating", "setting": "soybean; [5]", "value": 98}, {"measurement": "Soybean plant response rating", "setting": "soybean; [6]", "value": 100}, {"measurement": "Plant response rating, Soybean", "setting": "soybean; [7]", "value": 0}, {"measurement": "Plant response rating, Rice", "setting": "rice; [9]", "value": 0}, {"measurement": "Plant response rating, Rice", "setting": "rice; [10]", "value": 60}, {"measurement": "Plant response rating, Barnyardgrass", "setting": "barnyardgrass; [9]", "value": 0}, {"measurement": "Plant response rating, Barnyardgrass", "setting": "barnyardgrass; [10]", "value": 45}]}]}
